Laboratory results: PubChem BioAssay (NCI)
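GI50 is the concentration that inhibits growth by half. TGI is the concentration that stops growth completely.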

Key:
Assay in all cases: NCI tumour cell line growth inhibition, 384-well format
[1] = test system: 786-0 renal
[2] = test system: A498 renal
[3] = test system: A549 NSCLC
[4] = test system: ACHN renal
[5] = test system: BT-549 breast
[6] = test system: CAKI-1 renal
[7] = test system: COLO 205 colon
[8] = test system: DU-145 prostate
[9] = test system: EKVX NSCLC
[10] = test system: HCT-116 colon
[11] = test system: HCT-15 colon
[12] = test system: HL-60(TB) leukemia
[13] = test system: HOP-62 NSCLC
[14] = test system: HOP-92 NSCLC
[15] = test system: HS 578T breast
[16] = test system: HT29 colon
[17] = test system: IGROV1 ovarian
[18] = test system: K-562 leukemia
[19] = test system: KM12 colon
[20] = test system: M14 melanoma
[21] = test system: MALME-3M melanoma
[22] = test system: MCF7 breast
[23] = test system: MDA-MB-231 breast
[24] = test system: MDA-MB-435 melanoma
[25] = test system: MDA-MB-468 breast
[26] = test system: MOLT-4 leukemia
[27] = test system: NCI-H226 lung
[28] = test system: NCI-H23 lung
[29] = test system: NCI-H322M lung
[30] = test system: NCI-H460 NSCLC
[31] = test system: NCI-H522 lung
[32] = test system: OVCAR-3 ovarian
[33] = test system: OVCAR-4 ovarian
[34] = test system: OVCAR-5 ovarian
[35] = test system: OVCAR-8 ovarian
[36] = test system: PC-3 prostate
[37] = test system: SF-268 CNS
[38] = test system: SF-295 CNS
[39] = test system: SF-539 CNS
[40] = test system: SK-MEL-2 melanoma
[41] = test system: SK-MEL-28 melanoma
[42] = test system: SK-MEL-5 melanoma
[43] = test system: SK-OV-3 ovarian
[44] = test system: SN12C renal
[45] = test system: SNB-19 CNS
[46] = test system: SNB-75 CNS
[47] = test system: SR leukemia
[48] = test system: SW-620 colon
[49] = test system: T-47D breast
[50] = test system: TK-10 renal
[51] = test system: U251 glioblastoma
[52] = test system: UACC-257 melanoma
[53] = test system: UACC-62 melanoma
[54] = test system: UO-31 renal

Question: With `C[C@]12CC[C@@H]3c4ccc(O)cc4C[C@@H](CCCCCCCCCS(=O)CCCC(F)(F)C(F)(F)F)[C@H]3[C@@H]1CC[C@@H]2O` (some centres not stated) as the compound, how does the GI50 [1] read?
Answer: > 100 µM

Question: What about the TGI [1] of the same compound?
Answer: > 100 µM

Question: And the GI50 [2]?
Answer: > 100 µM

Question: And the TGI [2]?
Answer: > 100 µM

Question: And the GI50 [3]?
Answer: > 100 µM

Question: What about the TGI [3] of the same compound?
Answer: > 100 µM

Question: And the GI50 [4]?
Answer: > 100 µM

Question: And the TGI [4]?
Answer: > 100 µM

Question: What about the GI50 [5] of the same compound?
Answer: > 100 µM

Question: What about the TGI [5] of the same compound?
Answer: > 100 µM

Question: And the GI50 [6]?
Answer: > 100 µM

Question: And the TGI [6]?
Answer: > 100 µM

Question: And the GI50 [7]?
Answer: 77.1 µM

Question: And the TGI [7]?
Answer: > 100 µM

Question: What about the GI50 [8] of the same compound?
Answer: > 100 µM

Question: What about the TGI [8] of the same compound?
Answer: > 100 µM

Question: What about the GI50 [9] of the same compound?
Answer: > 100 µM

Question: And the TGI [9]?
Answer: > 100 µM

Question: What about the GI50 [10] of the same compound?
Answer: > 100 µM

Question: What about the TGI [10] of the same compound?
Answer: > 100 µM

Question: What about the GI50 [11] of the same compound?
Answer: 67.4 µM

Question: And the TGI [11]?
Answer: > 100 µM

Question: What about the GI50 [12] of the same compound?
Answer: > 100 µM

Question: And the TGI [12]?
Answer: > 100 µM

Question: And the GI50 [13]?
Answer: > 100 µM

Question: And the TGI [13]?
Answer: > 100 µM

Question: What about the GI50 [14] of the same compound?
Answer: > 100 µM

Question: And the TGI [14]?
Answer: > 100 µM

Question: What about the GI50 [15] of the same compound?
Answer: > 100 µM

Question: What about the TGI [15] of the same compound?
Answer: > 100 µM

Question: What about the GI50 [16] of the same compound?
Answer: 49.9 µM

Question: What about the TGI [16] of the same compound?
Answer: > 100 µM

Question: What about the GI50 [17] of the same compound?
Answer: > 100 µM

Question: What about the TGI [17] of the same compound?
Answer: > 100 µM

Question: What about the GI50 [18] of the same compound?
Answer: 7.51 µM

Question: And the TGI [18]?
Answer: > 100 µM

Question: And the GI50 [19]?
Answer: 75.8 µM

Question: And the TGI [19]?
Answer: > 100 µM

Question: And the GI50 [20]?
Answer: > 100 µM

Question: And the TGI [20]?
Answer: > 100 µM

Question: What about the GI50 [21] of the same compound?
Answer: > 100 µM

Question: What about the TGI [21] of the same compound?
Answer: > 100 µM

Question: And the TGI [22]?
Answer: > 100 µM

Question: What about the GI50 [23] of the same compound?
Answer: > 100 µM

Question: And the TGI [23]?
Answer: > 100 µM

Question: And the GI50 [24]?
Answer: > 100 µM

Question: What about the TGI [24] of the same compound?
Answer: > 100 µM

Question: And the GI50 [25]?
Answer: 2.37 µM

Question: And the TGI [25]?
Answer: > 100 µM

Question: And the GI50 [26]?
Answer: 8.42 µM

Question: What about the TGI [26] of the same compound?
Answer: > 100 µM

Question: What about the GI50 [27] of the same compound?
Answer: > 100 µM

Question: And the TGI [27]?
Answer: > 100 µM

Question: And the GI50 [28]?
Answer: > 100 µM

Question: What about the TGI [28] of the same compound?
Answer: > 100 µM

Question: What about the GI50 [29] of the same compound?
Answer: 76.8 µM

Question: And the TGI [29]?
Answer: > 100 µM

Question: And the GI50 [30]?
Answer: > 100 µM

Question: And the TGI [30]?
Answer: > 100 µM

Question: And the GI50 [31]?
Answer: > 100 µM

Question: And the TGI [31]?
Answer: > 100 µM

Question: What about the GI50 [32] of the same compound?
Answer: > 100 µM

Question: What about the TGI [32] of the same compound?
Answer: > 100 µM

Question: What about the GI50 [33] of the same compound?
Answer: > 100 µM

Question: What about the TGI [33] of the same compound?
Answer: > 100 µM

Question: What about the GI50 [34] of the same compound?
Answer: > 100 µM

Question: What about the TGI [34] of the same compound?
Answer: > 100 µM

Question: And the GI50 [35]?
Answer: > 100 µM

Question: And the TGI [35]?
Answer: > 100 µM

Question: And the GI50 [36]?
Answer: > 100 µM

Question: What about the TGI [36] of the same compound?
Answer: > 100 µM

Question: What about the GI50 [37] of the same compound?
Answer: > 100 µM

Question: What about the TGI [37] of the same compound?
Answer: > 100 µM

Question: What about the GI50 [38] of the same compound?
Answer: 9.39 µM

Question: And the TGI [38]?
Answer: > 100 µM

Question: What about the GI50 [39] of the same compound?
Answer: > 100 µM

Question: What about the TGI [39] of the same compound?
Answer: > 100 µM

Question: What about the GI50 [40] of the same compound?
Answer: > 100 µM

Question: What about the TGI [40] of the same compound?
Answer: > 100 µM

Question: And the GI50 [41]?
Answer: > 100 µM

Question: What about the TGI [41] of the same compound?
Answer: > 100 µM

Question: And the GI50 [42]?
Answer: 27.4 µM

Question: And the TGI [42]?
Answer: > 100 µM

Question: What about the GI50 [43] of the same compound?
Answer: > 100 µM

Question: And the TGI [43]?
Answer: > 100 µM

Question: What about the GI50 [44] of the same compound?
Answer: > 100 µM

Question: And the TGI [44]?
Answer: > 100 µM

Question: And the GI50 [45]?
Answer: > 100 µM

Question: And the TGI [45]?
Answer: > 100 µM

Question: What about the GI50 [46] of the same compound?
Answer: > 100 µM

Question: What about the TGI [46] of the same compound?
Answer: > 100 µM

Question: What about the GI50 [47] of the same compound?
Answer: > 100 µM

Question: And the TGI [47]?
Answer: > 100 µM

Question: And the GI50 [48]?
Answer: > 100 µM

Question: And the TGI [48]?
Answer: > 100 µM

Question: What about the GI50 [49] of the same compound?
Answer: 1.93 µM

Question: What about the TGI [49] of the same compound?
Answer: > 100 µM

Question: And the GI50 [50]?
Answer: > 100 µM

Question: And the TGI [50]?
Answer: > 100 µM

Question: What about the GI50 [51] of the same compound?
Answer: > 100 µM

Question: What about the TGI [51] of the same compound?
Answer: > 100 µM

Question: What about the GI50 [52] of the same compound?
Answer: > 100 µM

Question: What about the TGI [52] of the same compound?
Answer: > 100 µM

Question: And the GI50 [53]?
Answer: > 100 µM

Question: What about the TGI [53] of the same compound?
Answer: > 100 µM

Question: And the GI50 [54]?
Answer: > 100 µM

Question: What about the TGI [54] of the same compound?
Answer: > 100 µM
